Key:
Type in all cases: in vivo
[1] = test system: velvetleaf (Abutilon theophrasti); experiment: Test G Post-Emergence Protocol; settings: Abutilon theophrasti, post-emergence, 312 h; for pest or weed control at 15.625 g/ha: 15.625 g ai/ha, evaluated after 13 days (100=total damage to plant; 0=no damage to plant), read-out: Velvetleaf damage rating; for pest or weed control at 62.5 g/ha: 62.5 g ai/ha, read-out: Velvetleaf damage rating (100=total damage to plant; 0=no damage to plant); for pest or weed control at 62.5 g/ha / pest or weed control at 250 g/ha: evaluated after 13 days; for pest or weed control at 250 g/ha: 250 g ai/ha, read-out: damage to plant, Velvetleaf (100=total damage to plant; 0=no damage to plant)
Method in brief: (§1)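 Scores run 0 (no damage) to 100 (total damage) and were taken 13 days after spraying. Plants had been raised in pots for 8 days under glasshouse control (24/16 °C, 14 h photoperiod, 65% humidity) and then treated at 15.625, 62.5 or 250 g/ha.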

[2] = test system: redroot pigweed (Amaranthus retroflexus); experiment: Test G Post-Emergence Protocol; settings: Amaranthus retroflexus, post-emergence, 312 h; for pest or weed control at 15.625 g/ha: 15.625 g ai/ha, evaluated after 13 days (100=total damage to plant; 0=no damage to plant), read-out: Pigweed, Redroot damage rating; for pest or weed control at 62.5 g/ha: 62.5 g ai/ha, read-out: Pigweed, Redroot damage rating (100=total damage to plant; 0=no damage to plant); for pest or weed control at 62.5 g/ha / pest or weed control at 250 g/ha: evaluated after 13 days; for pest or weed control at 250 g/ha: 250 g ai/ha, read-out: damage to plant, Pigweed, Redroot (100=total damage to plant; 0=no damage to plant)
Method in brief: as §1

[3] = test system: ivy-leaved morning glory (Ipomoea hederacea); experiment: Test G Post-Emergence Protocol; settings: Ipomoea, post-emergence, 312 h; for pest or weed control at 15.625 g/ha: 15.625 g ai/ha, evaluated after 13 days (100=total damage to plant; 0=no damage to plant), read-out: Morningglory, Ivy-leaved damage rating; for pest or weed control at 62.5 g/ha: 62.5 g ai/ha, read-out: Morningglory, Ivy-leaved damage rating (100=total damage to plant; 0=no damage to plant); for pest or weed control at 62.5 g/ha / pest or weed control at 250 g/ha: evaluated after 13 days; for pest or weed control at 250 g/ha: 250 g ai/ha, read-out: damage to plant, Morningglory, Ivy-leaved (100=total damage to plant; 0=no damage to plant)
Method in brief: as §1

[4] = test system: barnyardgrass (Echinochloa crus-galli); experiment: Test G Post-Emergence Protocol; settings: Echinochloa crus-galli, post-emergence, 312 h; for pest or weed control at 15.625 g/ha: 15.625 g ai/ha, evaluated after 13 days (100=total damage to plant; 0=no damage to plant), read-out: Barnyardgrass damage rating; for pest or weed control at 62.5 g/ha: 62.5 g ai/ha, read-out: Barnyardgrass damage rating (100=total damage to plant; 0=no damage to plant); for pest or weed control at 62.5 g/ha / pest or weed control at 250 g/ha: evaluated after 13 days; for pest or weed control at 250 g/ha: 250 g ai/ha, read-out: damage to plant, Barnyardgrass (100=total damage to plant; 0=no damage to plant)
Method in brief: as §1

[5] = test system: corn (Zea mays); experiment: Test G Post-Emergence Protocol; settings: Zea mays, post-emergence, 312 h; for plant injury at 15.625 g/ha: 15.625 g ai/ha, evaluated after 13 days (100=total damage to plant; 0=no damage to plant), read-out: Corn damage rating; for plant injury at 62.5 g/ha: 62.5 g ai/ha, read-out: Corn damage rating (100=total damage to plant; 0=no damage to plant); for plant injury at 62.5 g/ha / plant injury at 250 g/ha: evaluated after 13 days; for plant injury at 250 g/ha: 250 g ai/ha, read-out: damage to plant, Corn (100=total damage to plant; 0=no damage to plant)
Method in brief: as §1

[6] = test system: giant foxtail (Setaria faberi); experiment: Test G Post-Emergence Protocol; settings: Setaria faberi, post-emergence, 312 h; for pest or weed control at 15.625 g/ha: 15.625 g ai/ha, evaluated after 13 days (100=total damage to plant; 0=no damage to plant), read-out: Foxtail, Giant damage rating; for pest or weed control at 62.5 g/ha: 62.5 g ai/ha, read-out: Foxtail, Giant damage rating (100=total damage to plant; 0=no damage to plant); for pest or weed control at 62.5 g/ha / pest or weed control at 250 g/ha: evaluated after 13 days; for pest or weed control at 250 g/ha: 250 g ai/ha, read-out: damage to plant, Foxtail, Giant (100=total damage to plant; 0=no damage to plant)
Method in brief: as §1

[7] = test system: velvetleaf (Abutilon theophrasti); experiment: Test G Pre-Emergence Protocol; settings: Abutilon theophrasti, pre-emergence, 312 h, evaluated after 13 days; for pest or weed control at 15.625 g/ha: 15.625 g ai/ha; for pest or weed control at 15.625 g/ha / pest or weed control at 250 g/ha: read-out: Velvetleaf damage rating (100=total damage to plant; 0=no damage to plant); for pest or weed control at 62.5 g/ha: 62.5 g ai/ha, 100=total damage to plant, 0=no damage to plant, read-out: plant damage rating, Velvetleaf; for pest or weed control at 250 g/ha: 250 g ai/ha
Method in brief: (§2)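 Visual injury (0–100) at day 13 after a single pre-emergence spray. Rates: 15.625, 62.5, 250 g/ha in acetone–water 50:50 with 0.5% Tween 20. Growth conditions: 24/16° C, 14 h light, 65% humidity.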

[8] = test system: redroot pigweed (Amaranthus retroflexus); experiment: Test G Pre-Emergence Protocol; settings: Amaranthus retroflexus, pre-emergence, 312 h, evaluated after 13 days; for pest or weed control at 15.625 g/ha: 15.625 g ai/ha; for pest or weed control at 15.625 g/ha / pest or weed control at 250 g/ha: read-out: Pigweed, Redroot damage rating (100=total damage to plant; 0=no damage to plant); for pest or weed control at 62.5 g/ha: 62.5 g ai/ha, 100=total damage to plant, 0=no damage to plant, read-out: plant damage rating, Pigweed, Redroot; for pest or weed control at 250 g/ha: 250 g ai/ha
Method in brief: as §2

[9] = test system: ivy-leaved morning glory (Ipomoea hederacea); experiment: Test G Pre-Emergence Protocol; settings: Ipomoea, pre-emergence, 312 h, evaluated after 13 days; for pest or weed control at 15.625 g/ha: 15.625 g ai/ha, read-out: Morning-glory, Ivy-leaved damage rating (100=total damage to plant; 0=no damage to plant); for pest or weed control at 62.5 g/ha: 62.5 g ai/ha, 100=total damage to plant, 0=no damage to plant, read-out: plant damage rating, Morningglory, Ivy-leaved; for pest or weed control at 250 g/ha: 250 g ai/ha, read-out: Morningglory, Ivy-leaved damage rating (100=total damage to plant; 0=no damage to plant)
Method in brief: as §2

[10] = test system: barnyardgrass (Echinochloa crus-galli); experiment: Test G Pre-Emergence Protocol; settings: Echinochloa crus-galli, pre-emergence, 312 h, evaluated after 13 days; for pest or weed control at 15.625 g/ha: 15.625 g ai/ha, read-out: Barnyard grass damage rating (100=total damage to plant; 0=no damage to plant); for pest or weed control at 62.5 g/ha: 62.5 g ai/ha, 100=total damage to plant, 0=no damage to plant, read-out: plant damage rating, Barnyardgrass; for pest or weed control at 250 g/ha: 250 g ai/ha, read-out: Barnyardgrass damage rating (100=total damage to plant; 0=no damage to plant)
Method in brief: as §2

[11] = test system: corn (Zea mays); experiment: Test G Pre-Emergence Protocol; settings: Zea mays, pre-emergence, 312 h, evaluated after 13 days; for plant injury at 15.625 g/ha: 15.625 g ai/ha; for plant injury at 15.625 g/ha / plant injury at 250 g/ha: read-out: Corn damage rating (100=total damage to plant; 0=no damage to plant); for plant injury at 62.5 g/ha: 62.5 g ai/ha, 100=total damage to plant, 0=no damage to plant, read-out: plant damage rating, Corn; for plant injury at 250 g/ha: 250 g ai/ha
Method in brief: as §2

[12] = test system: giant foxtail (Setaria faberi); experiment: Test G Pre-Emergence Protocol; settings: Setaria faberi, pre-emergence, 312 h, evaluated after 13 days; for pest or weed control at 15.625 g/ha: 15.625 g ai/ha; for pest or weed control at 15.625 g/ha / pest or weed control at 250 g/ha: read-out: Foxtail, Giant damage rating (100=total damage to plant; 0=no damage to plant); for pest or weed control at 62.5 g/ha: 62.5 g ai/ha, 100=total damage to plant, 0=no damage to plant, read-out: plant damage rating, Foxtail, Giant; for pest or weed control at 250 g/ha: 250 g ai/ha
Method in brief: as §2

| SMILES | pest or weed control at 15.625 g/ha [1] | pest or weed control at 62.5 g/ha [1] | pest or weed control at 250 g/ha [1] | pest or weed control at 15.625 g/ha [2] | pest or weed control at 62.5 g/ha [2] | pest or weed control at 250 g/ha [2] | pest or weed control at 15.625 g/ha [3] | pest or weed control at 62.5 g/ha [3] | pest or weed control at 250 g/ha [3] | pest or weed control at 15.625 g/ha [4] | pest or weed control at 62.5 g/ha [4] | pest or weed control at 250 g/ha [4] | plant injury at 15.625 g/ha [5] | plant injury at 62.5 g/ha [5] | plant injury at 250 g/ha [5] | pest or weed control at 15.625 g/ha [6] | pest or weed control at 62.5 g/ha [6] | pest or weed control at 250 g/ha [6] | pest or weed control at 15.625 g/ha [7] | pest or weed control at 62.5 g/ha [7] | also measured |
| --- | --- | --- | --- | --- | --- | --- | --- | --- | --- | --- | --- | --- | --- | --- | --- | --- | --- | --- | --- | --- | --- |
| CN1C[C@@H](c2ccc(Cl)nc2)[C@H](C(=O)Nc2cccc(F)c2F)C1=O (racemic) [Compound 1462] | 0% | 0% | 0% | 0% | 0% | 0% | 0% | 20% | 10% | 0% | 20% | 30% | 0% | 0% | 10% | 0% | 50% | 70% | 0% | 0% | pest or weed control at 250 g/ha [7]: 0%; pest or weed control at 15.625 g/ha [8]: 0%; pest or weed control at 62.5 g/ha [8]: 0%; pest or weed control at 250 g/ha [8]: 0%; pest or weed control at 15.625 g/ha [9]: 0%; pest or weed control at 62.5 g/ha [9]: 0%; pest or weed control at 250 g/ha [9]: 50%; pest or weed control at 15.625 g/ha [10]: 20%; pest or weed control at 62.5 g/ha [10]: 50%; pest or weed control at 250 g/ha [10]: 80%; plant injury at 15.625 g/ha [11]: 0%; plant injury at 62.5 g/ha [11]: 0%; plant injury at 250 g/ha [11]: 0%; pest or weed control at 15.625 g/ha [12]: 0%; pest or weed control at 62.5 g/ha [12]: 70%; pest or weed control at 250 g/ha [12]: 80% |
| CN1C[C@@H](c2ccc(C(F)(F)F)cc2)[C@H](C(=O)Nc2cn[nH]c2)C1=O (racemic) [Compound 1646] | 0% | 0% | 0% | 0% | 0% | 0% | 0% | 0% | 0% | 0% | 0% | 0% | 0% | 0% | 0% | 0% | 10% | 20% | 0% | 0% | pest or weed control at 250 g/ha [7]: 0%; pest or weed control at 15.625 g/ha [8]: 0%; pest or weed control at 62.5 g/ha [8]: 0%; pest or weed control at 250 g/ha [8]: 0%; pest or weed control at 15.625 g/ha [9]: 0%; pest or weed control at 62.5 g/ha [9]: 0%; pest or weed control at 250 g/ha [9]: 0%; pest or weed control at 15.625 g/ha [10]: 0%; pest or weed control at 62.5 g/ha [10]: 0%; pest or weed control at 250 g/ha [10]: 0%; plant injury at 15.625 g/ha [11]: 0%; plant injury at 62.5 g/ha [11]: 0%; plant injury at 250 g/ha [11]: 0%; pest or weed control at 15.625 g/ha [12]: 0%; pest or weed control at 62.5 g/ha [12]: 0%; pest or weed control at 250 g/ha [12]: 0% |

— US12077503B2, “Substituted cyclic amides and their use as herbicides” (FMC CORPORATION, priority 2015, dated 2024)
